Reference: paper PMC5011342, “A high throughput drug screening assay to identify compounds that promote oligodendrocyte differentiation using acutely dissociated and purified oligodendrocyte precursor cells” (BMC Research Notes, 2016)
Read-outs that look alike come from different tables or passages of the source.

Tests used:
expanded OPCs = assay: cells; conditions: for 0.1 µM (% DMSO) / 1 µM (% DMSO) / 10 µM (% DMSO): alamarBlue viability of expanded OPCs, relative to DMSO control; for 0.1 µM (% DMSO): compound at 0.1 µM; for 1 µM (% DMSO): compound at 1 µM; for 10 µM (% DMSO): compound at 10 µM; for viability at 0.1 µM / viability at 1 µM / viability at 10 µM: Rattus norvegicus, 72 h
Outline: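 Expanded OPCs seeded at 10,000 cells/well in differentiation media, then exposed to NCC library compounds at 10, 1 and 0.1 µM (quadruplicate, 0.1% DMSO) for three days. Viability read as alamarBlue fluorescence (560/590 nm) after 4 h at 37 °C; tunicamycin 5 ng/ml served as toxicity control.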

[1] = tested on: acutely dissociated and purified rat OPCs; assay: Acute OL differentiation assay (MBP expression/cell, immunofluorescent image quantification); format: cell-based; conditions: Rattus norvegicus
Outline: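 Oligodendrocyte precursor cells were enriched from P6-P7 Sprague–Dawley rat brains by immunopanning (RAN-2 and GalC depletion, O4 selection), plated at 5000 cells/well in serum-free, mitogen-free differentiation media on PDL/laminin 96-well view plates, centrifuged at 200×g, and pre-incubated 1–2 h before test compounds were added in quadruplicate. On DIV4, cells were fixed, stained for MBP and DAPI, imaged automatically, and MBP expression per cell was quantified.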

[2] = test compound at 2 uM, NCC library screen, sheet "All OLga data", relative to quetiapine, read-out: 2 uM (% Quet)
[3] = test compound at 10 uM, NCC library screen, sheet "All OLga data", relative to quetiapine, read-out: 10 uM (% Quet)
[4] = read-out: 0.1 µM (% DMSO), alamarBlue viability, NCC library compound at 0.1 µM, sheet "All Tox data"
[5] = read-out: 1 µM (% DMSO), alamarBlue viability, NCC library compound at 1 µM, sheet "All Tox data"
[6] = read-out: 10 µM (% DMSO), alamarBlue viability, NCC library compound at 10 µM, sheet "All Tox data"
[7] = read-out: 0.1 µM (% DMSO), alamarBlue viability of expanded OPCs, compound at 0.1 µM, sheet All Tox data
[8] = read-out: 1 µM (% DMSO), alamarBlue viability of expanded OPCs, compound at 1 µM, sheet All Tox data
[9] = read-out: 10 µM (% DMSO), alamarBlue viability of expanded OPCs, compound at 10 µM, sheet All Tox data
[10] = 2 uM test compound, relative to quetiapine, sheet "All OLga data", read-out: OL differentiation, 2 uM (% Quet)
[11] = 10 uM test compound, relative to quetiapine, sheet "All OLga data", read-out: OL differentiation, 10 uM (% Quet)
[12] = 0.4 uM test compound, relative to quetiapine, sheet "All OLga data", read-out: OL differentiation, 0.4 uM (% Quet)

## c1ccc2c(CC3=NCCN3)cccc2c1 [Naphazoline]
Expanded OPCs
  0.1 µM (% DMSO): 92.9 % DMSO
  1 µM (% DMSO): 92.8 % DMSO
  10 µM (% DMSO): 78.6 % DMSO
[1]; [2]
  activation at 2 µM: -4.8%
[1]; [3]
  activation at 10 µM: -45.4%

## COc1ccc2cc([C@H](C)C(=O)O)ccc2c1 [Naproxen]
Expanded OPCs; [4]
  viability at 0.1 µM: 91.1%
Expanded OPCs; [5]
  viability at 1 µM: 95.1%
Expanded OPCs; [6]
  viability at 10 µM: 94%
[1]; [2]
  activation at 2 µM: 1%
[1]; [3]
  activation at 10 µM: -0.6%

## CC(C)[C@H]1CC[C@H](C(=O)N[C@H](Cc2ccccc2)C(=O)O)CC1 [Nateglinide]
Expanded OPCs; [7]
  viability at 0.1 µM: 93.4%
Expanded OPCs; [8]
  viability at 1 µM: 92.4%
Expanded OPCs; [9]
  viability at 10 µM: 99.5%
[1]; [10]
  activation at 2 µM: -26.4%
[1]; [11]
  activation at 10 µM: -12.7%

## CCc1nn(CCCN2CCN(c3cccc(Cl)c3)CC2)c(=O)n1CCOc1ccccc1 [Nefazodone]
Expanded OPCs; [7]
  viability at 0.1 µM: 99.6%
Expanded OPCs; [8]
  viability at 1 µM: 111%
Expanded OPCs; [9]
  viability at 10 µM: 42.8%
[1]; [12]
  activation at 0.4 µM: -5.2%
[1]; [10]
  activation at 2 µM: 0.4%

## Cc1c(O)cccc1C(=O)N[C@@H](CSc1ccccc1)[C@H](O)CN1C[C@H]2CCCC[C@H]2C[C@H]1C(=O)NC(C)(C)C [Nelfinavir]
Expanded OPCs; [7]
  viability at 0.1 µM: 100%
Expanded OPCs; [8]
  viability at 1 µM: 59%
Expanded OPCs; [9]
  viability at 10 µM: 11.3%
[1]; [12]
  activation at 0.4 µM: -21.8%
[1]; [10]
  activation at 2 µM: -84.5%

## Cc1ccnc2c1NC(=O)c1cccnc1N2C1CC1 [Nevirapine]
Expanded OPCs; [7]
  viability at 0.1 µM: 93.7%
Expanded OPCs; [8]
  viability at 1 µM: 90.2%
Expanded OPCs; [9]
  viability at 10 µM: 93.3%
[1]; [10]
  activation at 2 µM: 0.24%
[1]; [11]
  activation at 10 µM: 15.9%

## O=C(O)c1cccnc1 [Niacin]
Expanded OPCs
  0.1 µM (% DMSO): 92.4 % DMSO
  1 µM (% DMSO): 94.0 % DMSO
  10 µM (% DMSO): 85.5 % DMSO
[1]; [2]
  activation at 2 µM: -3.6%
[1]; [3]
  activation at 10 µM: 3.6%

## NC(=O)c1cccnc1 [Niacinamide]
Expanded OPCs; [4]
  viability at 0.1 µM: 90.4%
Expanded OPCs; [5]
  viability at 1 µM: 91%
Expanded OPCs; [6]
  viability at 10 µM: 80.9%
[1]; [2]
  activation at 2 µM: -37.7%
[1]; [3]
  activation at 10 µM: -38.5%

## O=C(CCNNC(=O)c1ccncc1)NCc1ccccc1 [Nialamide]
Expanded OPCs; [4]
  viability at 0.1 µM: 95%
Expanded OPCs; [5]
  viability at 1 µM: 96.2%
Expanded OPCs; [6]
  viability at 10 µM: 91.7%
[1]; [2]
  activation at 2 µM: 2.8%
[1]; [3]
  activation at 10 µM: 14.8%

## COC(=O)C1=C(C)NC(C)=C(C(=O)OCCN(C)Cc2ccccc2)C1c1cccc([N+](=O)[O-])c1 (stereo not drawn) [Nicardipine]
Expanded OPCs; [4]
  viability at 0.1 µM: 85.3%
Expanded OPCs; [5]
  viability at 1 µM: 51.8%
Expanded OPCs; [6]
  viability at 10 µM: 14.3%
[1]; test compound at 0.08 uM, NCC library screen, sheet "All OLga data", relative to quetiapine, read-out: 0.08 uM (% Quet)
  activation at 0.08 µM: 8.8%
[1]; test compound at 0.4 uM, NCC library screen, sheet "All OLga data", relative to quetiapine, read-out: 0.4 uM (% Quet)
  activation at 0.4 µM: -29%

## O=C(NCCO[N+](=O)[O-])c1cccnc1 [Nicorandil]
Expanded OPCs; [4]
  viability at 0.1 µM: 92.6%
Expanded OPCs; [5]
  viability at 1 µM: 85.6%
Expanded OPCs; [6]
  viability at 10 µM: 82.2%
[1]; [2]
  activation at 2 µM: 14.7%
[1]; [3]
  activation at 10 µM: 3.2%

## CN1CCC[C@H]1c1cccnc1 [Nicotine]
Expanded OPCs; read-out: 0.1 µM (% DMSO)
  viability at 0.1 µM: 92.9%
Expanded OPCs; read-out: 1 µM (% DMSO)
  viability at 1 µM: 89.4%
Expanded OPCs; read-out: 10 µM (% DMSO)
  viability at 10 µM: 93.5%
[1]; read-out: 2 uM (% Quet)
  activation at 2 µM: 12.3%
[1]; read-out: 10 uM (% Quet)
  activation at 10 µM: 10.9%

## OCc1cccnc1 [Nicotinyl Alcohol]
Expanded OPCs; [4]
  viability at 0.1 µM: 88.5%
Expanded OPCs; [5]
  viability at 1 µM: 90.1%
Expanded OPCs; [6]
  viability at 10 µM: 89.3%
[1]; [2]
  activation at 2 µM: -9.3%
[1]; [3]
  activation at 10 µM: -3.3%

## Cn1c(NCCN(CCO)CCCc2ccc([N+](=O)[O-])cc2)cc(=O)n(C)c1=O [Nifekalant]
Expanded OPCs; [7]
  viability at 0.1 µM: 94.4%
Expanded OPCs; [8]
  viability at 1 µM: 97.6%
Expanded OPCs; [9]
  viability at 10 µM: 109%
[1]; [10]
  activation at 2 µM: -9.4%
[1]; [11]
  activation at 10 µM: 6%

## CN1C(=O)CN=C(c2ccccc2)c2cc([N+](=O)[O-])ccc21 [Nimetazepam]
Expanded OPCs; [4]
  viability at 0.1 µM: 89.5%
Expanded OPCs; [5]
  viability at 1 µM: 82.8%
Expanded OPCs; [6]
  viability at 10 µM: 81.8%
[1]; [10]
  activation at 2 µM: 6.5%
[1]; [11]
  activation at 10 µM: -0.15%
